The term IC50 denotes the concentration that gives 50% inhibition.

The test concerns the target human dUTPase (Homo sapiens (Human), UniProt P33316). Description: Human dUTPase inhibitory effect: production of [5-3H]dUMP from [5-3H]dUTP, measured by HPLC with flow scintillation. The test is classed as biochemical. The following applies: [5-3H]dUMP production from [5-3H]dUTP, 37° C., 15 minutes. The gist of the method: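 E. coli-expressed purified human dUTPase reacted with 1 μM dUTP stock containing [5-3H]dUTP in Tris pH 7.4, MgCl2, 2-mercaptoethanol and albumin, 15 min at 37° C; stopped by 1 min at 100° C. [5-3H]dUMP formed was separated by reversed-phase ion-pair HPLC and quantified by flow scintillation versus water control.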

Sequence of human dUTPase (P33316 94-252): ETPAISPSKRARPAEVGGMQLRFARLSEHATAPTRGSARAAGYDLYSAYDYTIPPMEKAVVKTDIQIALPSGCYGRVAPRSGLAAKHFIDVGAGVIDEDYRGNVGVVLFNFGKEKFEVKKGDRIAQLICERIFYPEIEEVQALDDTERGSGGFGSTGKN

`CCC[C@@H](C)Oc1cccc([C@@H](C)NS(=O)(=O)CCCOCn2ccc(=O)[nH]c2=O)c1` [Example 71, 3-((2,4-dioxo-3,4-dihydropyrimidin-1(2H)-yl)methoxy)-N—((R)-1-(3-((R)-pentan-2-yloxy)phenyl)ethyl)propane-1-sulfonamide] came in with an IC50 of 0.93 µM.
To `C[C@@H](NS(=O)(=O)CCCOCn1ccc(=O)[nH]c1=O)c1cccc(OCC(F)(F)C(F)(F)F)c1` [Example 72, (R)-3-((2,4-dioxo-3,4-dihydropyrimidin-1(2H)-yl)methoxy)-N-(1-(3-(2,2,3,3,3-pentafluoropropoxy)phenyl)ethyl)propane-1-sulfonamide] belongs 0.66 µM; to `C[C@@H](NS(=O)(=O)CCCOCn1ccc(=O)[nH]c1=O)c1cccc(OCCC2CC2)c1` [Example 73, (R)—N-(1-(3-(2-cyclopropylethoxy)phenyl)ethyl)-3-((2,4-dioxo-3,4-dihydropyrimidin-1(2H)-yl)methoxy)propane-1-sulfonamide], 0.51 µM; to `O=c1ccn(COCCCS(=O)(=O)NC(c2ccccc2)c2ccccc2)c(=O)[nH]1` [Example 76, N-benzhydryl-3-((2,4-dioxo-3,4-dihydropyrimidin-1(2H)-yl)methoxy)propane-1-sulfonamide], 2.1 µM.
The result for `Cc1ccccc1C(NS(=O)(=O)CCCOCn1ccc(=O)[nH]c1=O)c1ccccc1` (stereo not shown) [Example 77, 3-((2,4-dioxo-3,4-dihydropyrimidin-1(2H)-yl)methoxy)-N-(phenyl(o-tolyl)methyl)propane-1-sulfonamide] reads 5.69 µM; that for `O=c1ccn(COCCCS(=O)(=O)NC(c2ccc(F)cc2)c2ccc(F)cc2)c(=O)[nH]1` [Example 78, N-(bis(4-fluorophenyl)methyl)-3-((2,4-dioxo-3,4-dihydropyrimidin-1(2H)-yl)methoxy)propane-1-sulfonamide], 2.58 µM; that for `O=c1ccn(COCCCS(=O)(=O)N2CCC[C@@H]2C(c2ccccc2)c2ccccc2)c(=O)[nH]1` [Example 79, (R)-1-((3-(2-benzhydrylpyrrolidin-1-ylsulfonyl)propoxy)methyl)pyrimidine-2,4(1H, 3H)-dione], 1.65 µM.
To `CC(C)C[C@@H](NS(=O)(=O)CCCOCn1ccc(=O)[nH]c1=O)C(O)(c1ccccc1)c1ccccc1` [Example 80, (R)-3-((2,4-dioxo-3,4-dihydropyrimidin-1(2H)-yl)methoxy)-N-(1-hydroxy-4-methyl-1,1-diphenylpentan-2-yl)propane-1-sulfonamide] belongs 1.3 µM; to `O=c1ccn(COCCCS(=O)(=O)NC2(c3ccccc3)CCCC2)c(=O)[nH]1` [Example 81, 3-((2,4-dioxo-3,4-dihydropyrimidin-1(2H)-yl)methoxy)-N-(1-phenylcyclopentyl)propane-1-sulfonamide], 9.44 µM.
`CC[C@@H](NS(=O)(=O)CCCOCn1ccc(=O)[nH]c1=O)c1ccccc1` [Example 83, (R)-3-((2,4-dioxo-3,4-dihydropyrimidin-1(2H)-yl)methoxy)-N-(1-phenylpropyl)propane-1-sulfonamide] registered an IC50 of 4.78 µM.
To `C[C@@H](NS(=O)(=O)CCCOCn1ccc(=O)[nH]c1=O)c1cccc(F)c1` [Example 87, (R)-3-((2,4-dioxo-3,4-dihydropyrimidin-1(2H)-yl)methoxy)-N-(1-(3-fluorophenyl)ethyl)propane-1-sulfonamide] belongs 7.13 µM; to `O=c1ccn(COCCCS(=O)(=O)NC(c2ccccc2)c2cccc(F)c2)c(=O)[nH]1` (stereo not shown) [Example 93, 3-((2,4-dioxo-3,4-dihydropyrimidin-1(2H)-yl)methoxy)-N-((3-fluorophenyl)(phenyl)methyl)propane-1-sulfonamide], 4.63 µM.
To `O=c1ccn(Cc2ccc(S(=O)(=O)NC(c3ccccc3)c3ccccc3)cc2)c(=O)[nH]1` [Example 96, N-benzhydryl-4-((2,4-dioxo-3,4-dihydropyrimidin-1(2H)-yl)methyl)benzenesulfonamide] belongs 4.62 µM.

These data come from patent US8530490B2, “Uracil compound or salt thereof having human deoxyuridine triphosphatase inhibitory activity” (Taiho Pharmaceutical Co., Ltd., priority 2008, dated 2013).
